In patent US20250367209A1 (SOUTHERN RESEARCH INSTITUTE, priority 2022, published 2025):
“Also recorded” adds a separate entry of the source. Read-outs that look alike come from different tables or passages of the source.

Tests used:
[1] = tested on: primary rat neurons; assay: Modified MTT assay of Aβ toxicity in primary neurons; format: cell-based; conditions: for MTT: Table 3, Aβ toxicity in primary neurons; for Aβ toxicity / Aβ-induced membrane trafficking dysfunction, modified MTT assay: compound 0.3, 3 or 15 μM, 90-minute pretreatment, 2.5 μM Aβ, 24 hours
[2] = target: Tau-FynSH3 interaction (Homo sapiens (Human), UniProt P10636); assay: Tau-FynSH3 AlphaScreen; format: binding
Chain of Tau-FynSH3 interaction (P10636 other isoform, or with tags, fused parts or gaps): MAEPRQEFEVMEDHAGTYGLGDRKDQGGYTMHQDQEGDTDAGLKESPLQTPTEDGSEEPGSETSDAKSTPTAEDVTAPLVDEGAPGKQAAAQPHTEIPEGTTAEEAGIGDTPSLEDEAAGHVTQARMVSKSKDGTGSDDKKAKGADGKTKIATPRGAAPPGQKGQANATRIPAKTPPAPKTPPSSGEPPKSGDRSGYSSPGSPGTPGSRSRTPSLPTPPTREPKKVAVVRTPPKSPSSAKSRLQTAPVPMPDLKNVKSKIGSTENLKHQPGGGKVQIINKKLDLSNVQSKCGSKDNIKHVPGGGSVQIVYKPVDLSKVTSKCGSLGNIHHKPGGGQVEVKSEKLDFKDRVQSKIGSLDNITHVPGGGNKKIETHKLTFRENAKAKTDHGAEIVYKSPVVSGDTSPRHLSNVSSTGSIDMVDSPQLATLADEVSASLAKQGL
Procedure, shortened: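 Purified GST-Fyn-SH3-Strep and His-tagged human 4R2N Tau-Strep from E. coli, tested by AlphaScreen with glutathione donor and nickel chelate acceptor beads in Bis-Tris pH 7.0, TCEP, casein, Tween-20. Compound preincubated 30 min with first protein at 600 nM, then second protein 30 min, then beads 2 h.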

[3] = Table 2, Tau-FynSH3 inhibitory activity in the AlphaScreen, read-out: IC50
[4] = Table 3, read-out: Alpha screen IC50

| Structure (SMILES) | MTT [1] | IC50 [2, 3] | IC50 [2, 4] | Aβ toxicity / Aβ-induced membrane trafficking dysfunction, modified MTT assay [1] | AlphaScreen activity (in words) [2] | IC50 ([2]; unit printed as 'M', Table 2 gives 0.55 μM, read-out: IC50, inhibition in the AlphaScreen) |
| --- | --- | --- | --- | --- | --- | --- |
| O=C(CN1CCOc2ccccc21)Nc1nnc(-c2ccccn2)[nH]1 [compound 47, 2-(2,3-DIHYDRO-4H-BENZO[B][1,4]OXAZIN-4-YL)-N-(5-(PYRIDIN-2-YL)-4H-1,2,4-TRIAZOL-3-YL)ACETAMIDE] | Active | 320 nM | 910 nM |  |  |  |
| O=C(CN1C(=O)CSc2cc(F)ccc21)Nc1nnc(-c2ccccn2)[nH]1 [compound no. 12, 2-(7-FLUORO-3-oxo-2H-BENZO[B][1,4]THIAZIN-4(3H)-YL)-N-(5-(PYRIDIN-2-YL)-4H-1,2,4-TRIAZOL-3-YL)ACETAMIDE] | Active | 990 nM |  | inhibited Aβ toxicity; also recorded: did ameliorate Aβ toxicity | submicromolar IC50 |  |
| O=C(CN1C(=O)CSc2cc(Cl)ccc21)Nc1nnc(-c2ccccn2)[nH]1 [compound no. 13, 2-(7-CHLORO-3-OXO-2H-BENZO[B][1,4]THIAZIN-4(3H)-YL)-N-(5-(PYRIDIN-2-YL)-4H-1,2,4-TRIAZOL-3-YL)ACETAMIDE] | Active |  | 930 nM | inhibited Aβ toxicity; also recorded: did ameliorate Aβ toxicity |  |  |
| O=C(CN1C(=O)CSc2cc(F)c(F)cc21)Nc1nnc(-c2ccccn2)[nH]1 [compound no. 14, 2-(6,7-DIFLUORO-3-OXO-2H-BENZO[B][1,4]THIAZIN-4(3H)-YL)-N-(5-(PYRIDIN-2-YL)-4H-1,2,4-TRIAZOL-3-YL)ACETAMIDE] | Active |  | 900 nM | did not ameliorate Aβ toxicity |  |  |
| O=C(CN1CCSc2ccccc21)Nc1nnc(-c2ccccn2)[nH]1 [compound no. 20, 2-(2H-BENZO[B][1,4]THIAZIN-4(3H)-YL)-N-(5-(PYRIDIN-2-YL)-4H-1,2,4-TRIAZOL-3-YL)ACETAMIDE] | Insoluble | 550 nM | 552 nM |  |  | 550 nM |
| Cc1ccc2c(c1)SCC(=O)N2CC(=O)Nc1nnc(-c2ccccn2)[nH]1 [compound no. 23, 2-(7-METHYL-3-OXO-2H-BENZO[B][1,4]THIAZIN-4(3H)-YL)-N-(5-(PYRIDIN-2-YL)-4H-1,2,4-TRIAZOL-3-YL)ACETAMIDE] | Active | 790 nM |  | inhibited Aβ toxicity; also recorded: did ameliorate Aβ toxicity |  |  |
| O=C(CN1CCCc2ccccc21)Nc1nnc(-c2ccccn2)[nH]1 [compound no. 45, 2-(3,4-DIHYDROQUINOLIN-1(2H)-YL)-N-(5-(PYRIDIN-2-YL)-4H-1,2,4-TRIAZOL-3-YL)ACETAMIDE] | Active | 1250 nM |  | inhibited Aβ toxicity; also recorded: did ameliorate Aβ toxicity |  |  |
| O=C(CCN1C(=O)CSc2ccccc21)Nc1nnc(-c2ccccn2)[nH]1 [compound no. 55] |  | 5000 nM |  | prevented Aβ-induced membrane trafficking dysfunction; also recorded: ameliorates Aβ toxicity; also recorded: inhibited Aβ toxicity |  |  |
| O=C(CN1CCOc2ccccc21)Nc1nnc(-c2ccccn2)[nH]1 [compound no. 69] |  |  |  | prevented Aβ-induced membrane trafficking dysfunction; also recorded: ameliorates Aβ toxicity; also recorded: inhibited Aβ toxicity | submicromolar activity |  |
